Assay: Solubility in organic solvents
Type: physicochemical
Conditions: in each of toluene, xylene, N-methylpyrrolidone, γ-butyrolactone, 1,3-dimethyl-2-imidazoline, carbitol acetate, butylcarbitol acetate, dichloromethane, dichloroethane, chlorobenzene and isopropyl alcohol
Procedure: Examples of the distyrylarylene derivative represented by general formula (1) of the present invention will be shown in the following. However, the distyrylarylene derivative of the present invention is not limited to the compounds shown as the examples. In the following, C5 means n-pentyl group. The compounds shown in the following as the examples are all dissolved into 1,2-dichloroethane at 20° C. in an amount of 0.5% by weight or more.
In the same procedures as those conducted in Example 1, 4,4″-bis(2,2-diphenylethenyl)-9′,10′-diphenylanthracene was used in place of Compound (A1) and attempted to be dissolved in organic solvents, which were toluene, xylene, N-methylpyrrolidone, γ-butyrolactone, 1,3-dimethyl-2-imidazoline, carbitol acetate, butylcarbitol acetate, dichloromethane, dichloroethane, chlorobenzene and isopropyl alcohol. However, this compound was hardly soluble in these solvents since the solubility was smaller than 0.01% by weight in all of these solvents, and no device could be prepared.

solubility: smaller than 0.01 % by weight
SMILES: C(=C(c1ccccc1)c1ccccc1)c1ccc(-c2c3ccccc3c(-c3ccc(C=C(c4ccccc4)c4ccccc4)cc3)c3ccccc23)cc1 [4,4″-bis(2,2-diphenylethenyl)-9′,10′-diphenylanthracene]
